Data taken from PMC11299522 (Journal of medicinal chemistry, 2023).

Experiments:
[1] = test system: wild-type (WT) HEK293 cells; experiment: Pink Flamindo cAMP assay control in wild-type HEK293 cells lacking μORs; assay type: cell-based; conditions: compound 1 μM, AUC analysis, n = 3
[2] = test system: μOR; conditions: cited from earlier work

With `C=C(C)[C@@H]1CCC(C)=C[C@H]1c1c(O)cc(CCCCC)cc1O` [JGC1, (1′R,2′R)-5′-Methyl-4-pentyl-2′-(prop-1-en-2-yl)-1′,2′,3′,4′-tetrahydro-[1,1′-biphenyl]-2,6-diol] the “effect on cAMP accumulation in the absence of the hμOR” value [1] was “do not impact cAMP accumulation”.
For “[D-Ala,[2] N-MePhe,[4] Gly-ol]-enkephalin [DAMGO]”, the EC100 [2] is given as 250 nM.
